Measurements taken from patent US12564194B2, “Herbicide mixture, herbicidal composition, method and kit for controlling undesired vegetation” (Adama Agan Ltd., priority 2020, dated 2026).

Assays:
Format in all cases: in vivo
Aegilops tauschii [1] = assay: Soil sealing treatment pot experiment for controlling Aegilops tauschii, more mixing ratios (Example 3)
From the text: (§1) Referring to an article of Colby, S. R. i.e., Calculation of the synergistic and antagonistic response of herbicide combinations. Weeds 1967, 15, pp. 20-22 (which is incorporated herein in its entirety by reference), the theoretical value E0 of a given mixture of three active ingredients may be predicted according to the following equation, then evaluating whether there is synergy.
(§2) [formula] • wherein: • E0 is the theoretical fresh weight survival rate for the mixture of pyroxasulfone, chlorotoluron and […]; • X is the measured fresh weight survival rate for pyroxasulfone used alone in the same dosage as that in the mixture; • Y is the measured fresh weight survival rate for chlorotoluron used alone in the same dosage as that in the mixture; • Z is the measured fresh weight survival rate for mesosulfuron-methyl used alone in the same dosage as that in the mixture. • E is the measured fresh weight survival rate for the mixture of pyroxasulfone, chlorotoluron and mesosulfuron-methyl. • E0-E value is calculated to evaluate the combined effect of pyroxasulfone, chlorotoluron and mesosulfuron-methyl on the selected weeds.
(§3) In this example, the herbicidal activity of a mixture of pyroxasulfone, chlorotoluron and mesosulfuron-methyl for soil sealing treatment to control Aegilops tauschii is investigated by a pot experiment method under the conditions of a glass greenhouse. This example is carried out in accordance with “NY/T 1155.4-2006 Guidelines for Indoor Bioassay Tests of Pesticides, Herbicides Part 4: Activity Determination Tests, Stem and Leaf Spray Method”.
(§4) • Pyroxasulfone: pyroxasulfone (850 g/Kg, WG) from Adama Agan LTD. • Chlorotoluron: chlorotoluron (90 wt %, WG) from Adama Agan LTD. • Mesosulfuron-methyl: Sigma (30 g/L, OD) from Bayer AG. • Test location: Greenhouse of Institute of Plant Protection, Shandong Academy of Agricultural Sciences • Cultivation of test materials: The test soil is formed by mixing the 20 cm layer loam on the ground surface and the culture medium in a ratio of 3:1 as cultivation soil.
(§5) The test weeds are cultivated in a glass greenhouse at a temperature of 15-30° C. and natural light. A certain amount of Aegilops tauschil seeds are sown in a plastic pot with a diameter of 9 cm, covering with 1-2 mm soil, and putting them in an enamel dish filled with water. The bottom infiltration method is used to water them, waiting for the water to seep to the soil surface, and then transferring to a glass greenhouse for cultivation. The agents are applied on the second day after sowing Aegilops tauschii seeds.
(§6) For each active ingredient, the multiple dilution method is used to obtain the other five lower dosages from the highest dosage. A certain amount of agent is measured by pipette or balance, adding it directly to the water, and then diluting it to the required dosage by the multiple dilution method.
(§7) Spraying treatment: ASS-4 automatic control spraying system with a fan-shaped nozzle is used indoors to spray agent, the running speed is adjusted based on nozzle pressure, flow rate, etc. to spray 50 mL of chemical solution on the actual spray area of 1.1 m^2 (equivalent to 30 liters per mu), arranging the plastic pots to be processed on the spraying table evenly, and spraying evenly. The spraying pressure is 0.35 MPa, and the flow rate of the fan-shaped nozzle is 800 mL/min, spraying in order from low dosage to high dosage. Each treatment is repeated 3 times. After spraying, let it dry for one day, placing it in a glass greenhouse, and watering it regularly to keep moist.
Weed investigation method and time: after applying the agent, the symptoms of weed damage (such as growth inhibition, chlorosis, deformity, etc.) are recorded in detail. After 35 days, the fresh weight of aerial part of the weeds in each treatment is weighed, and the measured fresh weight inhibition rate and the measured fresh weight survival rate for each treatment are calculated according to the following equations: […]

Lolium multiflorum Lamk = assay: Soil sealing treatment pot experiment for controlling Lolium multiflorum Lamk (Example 2)
Aegilops tauschii [2] = assay: Soil sealing treatment pot experiment for controlling Aegilops tauschii (Example 1); conditions: for control effect on Aegilops tauschii: single active ingredient, summary of Table 2
From the text: as §1, §2, §3, §4, §5, §6, §7
Application time and frequency: the experiment is conducted on the second day after sowing Aegilops tauschii seeds, and the soil is evenly sprayed. The application time is Mar. 10, 2020, with one application.
Weed investigation method and time: after applying the agent, the symptoms of weed damage (such as growth inhibition, chlorosis, deformity, etc.) are recorded in detail. […]

Cn1nc(C(F)(F)F)c(CS(=O)(=O)C2=NOC(C)(C)C2)c1OC(F)F [pyroxasulfone, 3-[(5-difluoromethoxy-1-methyl-3-trifluoromethylpyrazol-4-yl)methylsulfonyl]-4,5-dihydro-5,5-dimethyl-1,2-isoxazole]
Actual fresh weight survival rate (%) - E (Aegilops tauschii [1]; 45 gai/ha): 75.0%
Actual fresh weight survival rate (%) - E (Aegilops tauschii [1]; 90 gai/ha): 51.7%
Actual fresh weight survival rate (%) - E (Aegilops tauschii [1]; 180 gai/ha): 34.5%
inhibition at 45 g/ha (Aegilops tauschii [1]; Aegilops tauschii, soil, 45 gai/ha, read-out: Actual fresh weight inhibition rate %): 25%
inhibition at 90 g/ha (Aegilops tauschii [1]; Aegilops tauschii, soil, 90 gai/ha, read-out: Actual fresh weight inhibition rate %): 48.3%
inhibition at 180 g/ha (Aegilops tauschii [1]; Aegilops tauschii, soil, 180 gai/ha, read-out: Actual fresh weight inhibition rate %): 65.5%
Measured fresh weight survival rate (%) - E (Lolium multiflorum Lamk; 5.625 gai/ha, 35 days): 69.23%
Measured fresh weight survival rate (%) - E (Lolium multiflorum Lamk; 11.25 gai/ha, 35 days): 53.85%
Measured fresh weight survival rate (%) - E (Lolium multiflorum Lamk; 22.5 gai/ha, 35 days): 51.65%
Measured fresh weight survival rate (%) - E (Lolium multiflorum Lamk; 45 gai/ha, 35 days): 20.88%
Measured fresh weight survival rate (%) - E (Lolium multiflorum Lamk; 90 gai/ha, 35 days): 0%
Measured fresh weight survival rate (%) - E (Lolium multiflorum Lamk; 180 gai/ha, 35 days): 0%
inhibition at 5.625 g/ha (Lolium multiflorum Lamk; Lolium multiflorum, soil, 840 h, 5.625 gai/ha, 35 days, read-out: Measured fresh weight inhibition rate (%)): 30.8%
inhibition at 11.25 g/ha (Lolium multiflorum Lamk; Lolium multiflorum, soil, 840 h, 11.25 gai/ha, 35 days, read-out: Measured fresh weight inhibition rate (%)): 46.1%
inhibition at 22.5 g/ha (Lolium multiflorum Lamk; Lolium multiflorum, soil, 840 h, 22.5 gai/ha, 35 days, read-out: Measured fresh weight inhibition rate (%)): 48.4%
inhibition at 45 g/ha (Lolium multiflorum Lamk; Lolium multiflorum, soil, 840 h, 45 gai/ha, 35 days, read-out: Measured fresh weight inhibition rate (%)): 79.1%
inhibition at 90 g/ha (Lolium multiflorum Lamk; Lolium multiflorum, soil, 840 h, 90 gai/ha, 35 days, read-out: Measured fresh weight inhibition rate (%)): 100%
inhibition at 180 g/ha (Lolium multiflorum Lamk; Lolium multiflorum, soil, 840 h, 180 gai/ha, 35 days, read-out: Measured fresh weight inhibition rate (%)): 100%
effect on Lolium multiflorum Lamk (Lolium multiflorum Lamk; single active ingredient, summary of Table 2): best effect
Measured fresh weight survival rate (%) - E (Aegilops tauschii [2]; 5.625 gai/ha, 35 days): 101.3%
Measured fresh weight survival rate (%) - E (Aegilops tauschii [2]; 11.25 gai/ha, 35 days): 97.4%
Measured fresh weight survival rate (%) - E (Aegilops tauschii [2]; 22.5 gai/ha, 35 days): 98.7%
Measured fresh weight survival rate (%) - E (Aegilops tauschii [2]; 45 gai/ha, 35 days): 79.22%
Measured fresh weight survival rate (%) - E (Aegilops tauschii [2]; 90 gai/ha, 35 days): 75.32%
Measured fresh weight survival rate (%) - E (Aegilops tauschii [2]; 180 gai/ha, 35 days): 54.55%
inhibition at 5.625 g/ha (Aegilops tauschii [2]; Aegilops tauschii, soil, 840 h, 5.625 gai/ha, 35 days, read-out: Measured fresh weight inhibition rate (%)): -1.3%
inhibition at 11.25 g/ha (Aegilops tauschii [2]; Aegilops tauschii, soil, 840 h, 11.25 gai/ha, 35 days, read-out: Measured fresh weight inhibition rate (%)): 2.6%
inhibition at 22.5 g/ha (Aegilops tauschii [2]; Aegilops tauschii, soil, 840 h, 22.5 gai/ha, 35 days, read-out: Measured fresh weight inhibition rate (%)): 1.3%
inhibition at 45 g/ha (Aegilops tauschii [2]; Aegilops tauschii, soil, 840 h, 45 gai/ha, 35 days, read-out: Measured fresh weight inhibition rate (%)): 20.8%
inhibition at 90 g/ha (Aegilops tauschii [2]; Aegilops tauschii, soil, 840 h, 90 gai/ha, 35 days, read-out: Measured fresh weight inhibition rate (%)): 24.7%
inhibition at 180 g/ha (Aegilops tauschii [2]; Aegilops tauschii, soil, 840 h, 180 gai/ha, 35 days, read-out: Measured fresh weight inhibition rate (%)): 45.5%
control effect on Aegilops tauschii (Aegilops tauschii [2]): certain effect

COC(=O)c1ccc(CNS(C)(=O)=O)cc1S(=O)(=O)NC(=O)Nc1nc(OC)cc(OC)n1 [mesosulfuron-methyl, 2-[3-(4,6-dimethoxypyrimidin-2-yl)ureasulfonyl]-4-methylsulfonamide methyl benzoate]
Actual fresh weight survival rate (%) - E (Aegilops tauschii [1]; 5 gai/ha): 93.1%
Actual fresh weight survival rate (%) - E (Aegilops tauschii [1]; 10 gai/ha): 88.8%
Actual fresh weight survival rate (%) - E (Aegilops tauschii [1]; 20 gai/ha): 76.7%
inhibition at 5 g/ha (Aegilops tauschii [1]; Aegilops tauschii, soil, 5 gai/ha, read-out: Actual fresh weight inhibition rate %): 6.9%
inhibition at 10 g/ha (Aegilops tauschii [1]; Aegilops tauschii, soil, 10 gai/ha, read-out: Actual fresh weight inhibition rate %): 11.2%
inhibition at 20 g/ha (Aegilops tauschii [1]; Aegilops tauschii, soil, 20 gai/ha, read-out: Actual fresh weight inhibition rate %): 23.3%
Measured fresh weight survival rate (%) - E (Lolium multiflorum Lamk; 1.25 gai/ha, 35 days): 96.7%
Measured fresh weight survival rate (%) - E (Lolium multiflorum Lamk; 2.5 gai/ha, 35 days): 94.51%
Measured fresh weight survival rate (%) - E (Lolium multiflorum Lamk; 5 gai/ha, 35 days): 83.52%
Measured fresh weight survival rate (%) - E (Lolium multiflorum Lamk; 10 gai/ha, 35 days): 60.44%
Measured fresh weight survival rate (%) - E (Lolium multiflorum Lamk; 20 gai/ha, 35 days): 39.56%
Measured fresh weight survival rate (%) - E (Lolium multiflorum Lamk; 40 gai/ha, 35 days): 6.59%
inhibition at 1.25 g/ha (Lolium multiflorum Lamk; Lolium multiflorum, soil, 840 h, 1.25 gai/ha, 35 days, read-out: Measured fresh weight inhibition rate (%)): 3.3%
inhibition at 2.5 g/ha (Lolium multiflorum Lamk; Lolium multiflorum, soil, 840 h, 2.5 gai/ha, 35 days, read-out: Measured fresh weight inhibition rate (%)): 5.49%
inhibition at 5 g/ha (Lolium multiflorum Lamk; Lolium multiflorum, soil, 840 h, 5 gai/ha, 35 days, read-out: Measured fresh weight inhibition rate (%)): 16.5%
inhibition at 10 g/ha (Lolium multiflorum Lamk; Lolium multiflorum, soil, 840 h, 10 gai/ha, 35 days, read-out: Measured fresh weight inhibition rate (%)): 39.6%
inhibition at 20 g/ha (Lolium multiflorum Lamk; Lolium multiflorum, soil, 840 h, 20 gai/ha, 35 days, read-out: Measured fresh weight inhibition rate (%)): 60.4%
inhibition at 40 g/ha (Lolium multiflorum Lamk; Lolium multiflorum, soil, 840 h, 40 gai/ha, 35 days, read-out: Measured fresh weight inhibition rate (%)): 93.4%
Measured fresh weight survival rate (%) - E (Aegilops tauschii [2]; 1.25 gai/ha, 35 days): 96.1%
Measured fresh weight survival rate (%) - E (Aegilops tauschii [2]; 2.5 gai/ha, 35 days): 100%
Measured fresh weight survival rate (%) - E (Aegilops tauschii [2]; 5 gai/ha, 35 days): 94.81%
Measured fresh weight survival rate (%) - E (Aegilops tauschii [2]; 10 gai/ha, 35 days): 83.12%
Measured fresh weight survival rate (%) - E (Aegilops tauschii [2]; 20 gai/ha, 35 days): 71.43%
Measured fresh weight survival rate (%) - E (Aegilops tauschii [2]; 40 gai/ha, 35 days): 88.31%
inhibition at 1.25 g/ha (Aegilops tauschii [2]; Aegilops tauschii, soil, 840 h, 1.25 gai/ha, 35 days, read-out: Measured fresh weight inhibition rate (%)): 3.9%
inhibition at 2.5 g/ha (Aegilops tauschii [2]; Aegilops tauschii, soil, 840 h, 2.5 gai/ha, 35 days, read-out: Measured fresh weight inhibition rate (%)): 0%
inhibition at 5 g/ha (Aegilops tauschii [2]; Aegilops tauschii, soil, 840 h, 5 gai/ha, 35 days, read-out: Measured fresh weight inhibition rate (%)): 5.19%
inhibition at 10 g/ha (Aegilops tauschii [2]; Aegilops tauschii, soil, 840 h, 10 gai/ha, 35 days, read-out: Measured fresh weight inhibition rate (%)): 16.9%
inhibition at 20 g/ha (Aegilops tauschii [2]; Aegilops tauschii, soil, 840 h, 20 gai/ha, 35 days, read-out: Measured fresh weight inhibition rate (%)): 28.6%
inhibition at 40 g/ha (Aegilops tauschii [2]; Aegilops tauschii, soil, 840 h, 40 gai/ha, 35 days, read-out: Measured fresh weight inhibition rate (%)): 11.7%
control effect on Aegilops tauschii (Aegilops tauschii [2]): substantively ineffective
